Columns and labels:
[1] = tested on: Eubacterium aerofaciens ATCC 25986; experiment: Assimilation test by intestinal microorganism; type: cell-based; conditions: 0.5 w/v % saccharide in PYF broth, 37° C., 96 hours; free of sugar: -
[2] = Maillard reaction (coloration with glycine); type: physicochemical; conditions: 10 w/v % saccharide, one w/v % glycine, 50 mM phosphate buffer pH 7.0, 100° C. for 90 min, 1-cm light-path cell
[3] = tested on: Streptococcus faecalis IAM 10065; experiment: Assimilation test by intestinal microorganism; type: cell-based; conditions: 0.5 w/v % saccharide in PYF broth, 37° C., 96 hours; free of sugar: -
[4] = tested on: Lactobacillus fermentum IFO 3959; experiment: Assimilation test by intestinal microorganism; type: cell-based; conditions: 0.5 w/v % saccharide in PYF broth, 37° C., 96 hours; free of sugar: -
[5] = tested on: Lactobacillus plantarum IFO 3070; experiment: Assimilation test by intestinal microorganism; type: cell-based; conditions: 0.5 w/v % saccharide in PYF broth, 37° C., 96 hours; free of sugar: -
[6] = tested on: Bifidobacterium animalis JCM 1190; experiment: Assimilation test by intestinal microorganism; type: cell-based; conditions: 0.5 w/v % saccharide in PYF broth, 37° C., 96 hours; free of sugar: -
[7] = tested on: Bifidobacterium breve JCM 1192; experiment: Assimilation test by intestinal microorganism; type: cell-based; conditions: 0.5 w/v % saccharide in PYF broth, 37° C., 96 hours; free of sugar: -
[8] = tested on: Clostridium ramosum JCM 1298; experiment: Assimilation test by intestinal microorganism; type: cell-based; conditions: 0.5 w/v % saccharide in PYF broth, 37° C., 96 hours; free of sugar: -
Pancreatic juice amylase = target: T1, Pancreatic juice amylase (Homo sapiens, UniProt P04746); experiment: in vitro
T1 sequence (P04746 16-511): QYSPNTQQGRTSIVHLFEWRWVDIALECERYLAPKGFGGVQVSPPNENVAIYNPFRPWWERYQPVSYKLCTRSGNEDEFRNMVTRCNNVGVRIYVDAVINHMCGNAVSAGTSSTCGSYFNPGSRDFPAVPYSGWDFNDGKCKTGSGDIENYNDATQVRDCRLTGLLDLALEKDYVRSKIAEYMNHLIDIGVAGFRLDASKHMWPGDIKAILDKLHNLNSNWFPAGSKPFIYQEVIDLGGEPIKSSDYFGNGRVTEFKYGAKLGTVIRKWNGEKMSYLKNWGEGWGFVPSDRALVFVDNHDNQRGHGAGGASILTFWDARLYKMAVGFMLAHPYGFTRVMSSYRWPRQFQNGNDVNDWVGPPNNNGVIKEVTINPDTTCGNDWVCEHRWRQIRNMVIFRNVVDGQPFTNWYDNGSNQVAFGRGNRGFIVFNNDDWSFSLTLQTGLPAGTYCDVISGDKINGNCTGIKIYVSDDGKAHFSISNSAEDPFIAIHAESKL

in vitro [9] = conditions: gastric acid
[10] = tested on: Escherichia coli IFO 3301; experiment: Assimilation test by intestinal microorganism; type: cell-based; conditions: 0.5 w/v % saccharide in PYF broth, 37° C., 96 hours; free of sugar: -
[11] = tested on: Bacteroides uniformis JCM 5828; experiment: Assimilation test by intestinal microorganism; type: cell-based; conditions: 0.5 w/v % saccharide in PYF broth, 37° C., 96 hours; free of sugar: -
[12] = tested on: Streptococcus sobrinus ATCC 27351; experiment: Acid formation by dental caries-inducing microorganisms; conditions: for pH at each fermentation time (min): living wet cells, 0.02M saccharide, Stephen buffer pH 7.0, 37° C.
[13] = tested on: Bacteroides distasonis JCM 5825; experiment: Assimilation test by intestinal microorganism; type: cell-based; conditions: 0.5 w/v % saccharide in PYF broth, 37° C., 96 hours; free of sugar: -
[14] = tested on: Clostridium sporogenes JCM 1416; experiment: Assimilation test by intestinal microorganism; type: cell-based; conditions: 0.5 w/v % saccharide in PYF broth, 37° C., 96 hours; free of sugar: ±
Experimental: To evaluate the growth rate of and to judge the assimilability by the microorganisms, the resultant broth was diluted 5-fold, and the turbidity of the dilution was measured at a wavelength of 750 nm in a 1-cm light-path cell. […] The criteria were in Table 3, and the results were in Tables 4 and 5: […]

[15] = tested on: Bifidobacterium adolescentis JCM 1275; experiment: Assimilation test by intestinal microorganism; type: cell-based; conditions: 0.5 w/v % saccharide in PYF broth, 37° C., 96 hours; free of sugar: -
Salivary amylase = target: T2, Salivary amylase (Homo sapiens, UniProt P0DUB6); experiment: in vitro
T2 sequence (P0DUB6 16-511): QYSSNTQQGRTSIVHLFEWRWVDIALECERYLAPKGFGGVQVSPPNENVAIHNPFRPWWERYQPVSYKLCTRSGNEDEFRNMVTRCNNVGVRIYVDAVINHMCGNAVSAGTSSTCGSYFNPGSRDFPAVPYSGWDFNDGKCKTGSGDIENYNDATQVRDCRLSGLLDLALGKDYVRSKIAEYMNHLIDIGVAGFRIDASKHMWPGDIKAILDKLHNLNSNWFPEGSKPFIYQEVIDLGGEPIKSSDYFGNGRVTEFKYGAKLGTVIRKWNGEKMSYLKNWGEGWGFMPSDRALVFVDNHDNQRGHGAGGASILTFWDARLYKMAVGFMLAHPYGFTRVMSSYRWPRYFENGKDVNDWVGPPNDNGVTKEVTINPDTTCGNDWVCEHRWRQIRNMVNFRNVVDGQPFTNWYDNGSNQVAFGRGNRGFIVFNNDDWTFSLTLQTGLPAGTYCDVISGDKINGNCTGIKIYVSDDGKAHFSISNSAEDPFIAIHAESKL

[16] = tested on: Bifidobacterium infantis JCM 1222; experiment: Assimilation test by intestinal microorganism; type: cell-based; conditions: 0.5 w/v % saccharide in PYF broth, 37° C., 96 hours; free of sugar: -
[17] = tested on: Clostridium perfringens JCM 3816; type: cell-based; conditions: 0.5 w/v % saccharide in PYF broth, 37° C., 96 hours; free of sugar: -
[18] = tested on: Bifidobacterium bifidum JCM 1255; experiment: Assimilation test by intestinal microorganism; type: cell-based; conditions: 0.5 w/v % saccharide in PYF broth, 37° C., 96 hours; free of sugar: -
[19] = tested on: Bacteroides vulgatus JCM 5826; experiment: Assimilation test by intestinal microorganism; type: cell-based; conditions: 0.5 w/v % saccharide in PYF broth, 37° C., 96 hours; free of sugar: -
[20] = tested on: Peptostreptococcus prevotii ATCC 9321; experiment: Assimilation test by intestinal microorganism; type: cell-based; conditions: 0.5 w/v % saccharide in PYF broth, 37° C., 96 hours; free of sugar: -
[21] = tested on: Bifidobacterium longum JCM 1217; experiment: Assimilation test by intestinal microorganism; type: cell-based; conditions: 0.5 w/v % saccharide in PYF broth, 37° C., 96 hours; free of sugar: -
glucosyltransferase = experiment: Inhibition of insoluble glucan formation by glucosyltransferase from dental caries-inducing microorganism; type: biochemical, Streptococcus sobrinus strain (ATCC 27351); conditions: sucrose plus test saccharide (one ml of one w/v % each), 37° C., 16 hours
Experimental: To a mixture solution consisting of one ml of one w/v % sucrose solution, one ml of one w/v % of a test saccharide solution, and 1.5 ml of 0.1M phosphate buffer (pH 6.8) was added 0.5 ml solution containing a crude glucosyltransferase specimen in a total protein content of 10 mg, and the mixture solution was placed in a small test tube which was then fixed and slanted to give a grade 30 degrees and allowed to react at 37° C. for 16 hours. The reaction mixture was transferred gently to another test tube and mixed with a solution obtained by washing carefully with 4 ml water the remaining substances adhered to the inner walls of the small test tube, and the mixture solution was centrifuged to obtain a precipitate as a non-adsorbed glucan. The amounts of the adsorbed- and non-adsorbed glucans thus obtained were respectively quantified by the anthrone-sulfuric acid method, and the total amount of them was regarded as the amount of the formed insoluble glucans. As a control system, a reaction system using water in place of the test saccharide solution, i.e. a reaction system using sucrose as a saccharide, was provided.

in vitro [22] = conditions: small intestinal mucosa enzyme
[23] = tested on: Clostridium butyricum JCM 1391; type: cell-based; conditions: 0.5 w/v % saccharide in PYF broth, 37° C., 96 hours; free of sugar: -

Row | Structure (SMILES) | Judgement of assimilation (turbidity at 750 nm, ×5) [1] | Coloration degree (at a wavelength of 480 nm) [2] | Judgement of assimilation (turbidity at 750 nm, ×5) [3] | Judgement of assimilation (turbidity at 750 nm, ×5) [4] | Judgement of assimilation (turbidity at 750 nm, ×5) [5] | Judgement of assimilation (turbidity at 750 nm, ×5) [6] | Judgement of assimilation (turbidity at 750 nm, ×5) [7] | Judgement of assimilation (turbidity at 750 nm, ×5) [8] | metabolised (Pancreatic juice amylase) [%] | Judgement of assimilation (turbidity at 750 nm, ×5) [10] | Judgement of assimilation (turbidity at 750 nm, ×5) [11] | pH reduction / acid fermentation, in words [12] | pH at each fermentation time (min) ([12]; 0 min) | pH at each fermentation time (min) ([12]; 5 min) | pH at each fermentation time (min) ([12]; 15 min) | pH at each fermentation time (min) ([12]; 30 min) | pH at each fermentation time (min) ([12]; 60 min) | pH at each fermentation time (min) ([12]; 90 min) | Judgement of assimilation (turbidity at 750 nm, ×5) [13] | Judgement of assimilation (turbidity at 750 nm, ×5) [15] | other results
1 | OC[C@H]1O[C@H](OC[C@H]2OC(O)[C@H](O)[C@@H](O)[C@@H]2O)[C@H](O)[C@@H](O)[C@@H]1O (stereo partly shown) [Isomaltose, reference compound] | + (0.15 or higher but less than 0.2) | 0.938 | + (0.15 or higher but less than 0.2) | - (Less than 0.1) | - (Less than 0.1) | +++ (0.3 or higher) | +++ (0.3 or higher) | - (Less than 0.1) | 0.2 | - (Less than 0.1) | - (Less than 0.1) | slight | 7.0 | 7.0 | 6.9 | 6.9 | 6.8 | 6.7 | + (0.15 or higher but less than 0.2) | +++ (0.3 or higher) | degraded (in vitro [9]): 0%; Judgement of assimilation (turbidity at 750 nm, ×5) [14]: ± (0.1 or higher but less than 0.15); metabolised (Salivary amylase): 0%; Judgement of assimilation (turbidity at 750 nm, ×5) [16]: +++ (0.3 or higher); Judgement of assimilation (turbidity at 750 nm, ×5) [17]: ± (0.1 or higher but less than 0.15); Judgement of assimilation (turbidity at 750 nm, ×5) [18]: + (0.15 or higher but less than 0.2); Judgement of assimilation (turbidity at 750 nm, ×5) [19]: - (Less than 0.1); Judgement of assimilation (turbidity at 750 nm, ×5) [20]: - (Less than 0.1); Judgement of assimilation (turbidity at 750 nm, ×5) [21]: ++ (0.2 or higher but less than 0.3)
2 | OC[C@H]1O[C@H](O[C@H]2O[C@H](CO)[C@@H](O)[C@H](O)[C@H]2O)[C@H](O)[C@@H](O)[C@@H]1O [Trehalose, α,α-trehalose, reference compound] | - (Less than 0.1) | 0.007 | + (0.15 or higher but less than 0.2) | + (0.15 or higher but less than 0.2) | ++ (0.2 or higher but less than 0.3) | + (0.15 or higher but less than 0.2) | - (Less than 0.1) | + (0.15 or higher but less than 0.2) | 0 | - (Less than 0.1) | ++ (0.2 or higher but less than 0.3) | moderate | 7.0 | 6.7 | 5.3 | 4.7 | 4.3 | 4.2 | ++ (0.2 or higher but less than 0.3) | + (0.15 or higher but less than 0.2) | Yield of non-adsorbed glucans (glucosyltransferase; sucrose alone control 923): 1,130 pg/ml; Yield of adsorbed glucans (glucosyltransferase; sucrose alone control 1,160): 772 pg/mL; Inhibitory percentage (%) on insoluble glucans formation (glucosyltransferase; vs sucrose alone): 8.7%; metabolised (in vitro [22]): 1.3%; metabolised (Salivary amylase): 0%; Judgement of assimilation (turbidity at 750 nm, ×5) [16]: - (Less than 0.1); Judgement of assimilation (turbidity at 750 nm, ×5) [17]: +++ (0.3 or higher); Judgement of assimilation (turbidity at 750 nm, ×5) [18]: + (0.15 or higher but less than 0.2); Judgement of assimilation (turbidity at 750 nm, ×5) [19]: + (0.15 or higher but less than 0.2); Judgement of assimilation (turbidity at 750 nm, ×5) [20]: + (0.15 or higher but less than 0.2); Judgement of assimilation (turbidity at 750 nm, ×5) [23]: +++ (0.3 or higher); Judgement of assimilation (turbidity at 750 nm, ×5) [21]: ++ (0.2 or higher but less than 0.3)

Source: US5858992A, “Non-reducing saccharides, their preparation and use” (Kabushiki Kaisha Hayashibara Seibutsu Kagaku Kenkyujo, priority 1995, dated 1999)
